Converted amounts (≈) assume the structure as drawn.
Conditions: buffer; pH 7.4; 200.0 µM

Row | Structure (SMILES) | solubility kinetic [µg/mL]
1 | CC(=O)c1ccc(NC(=O)C(C)Sc2nnc(-c3ccncc3)n2C2CC2)cc1 (stereo not given) | > 61.1
2 | N#CCc1ccc(OC(=O)c2ccncc2)cc1 | > 35.7
3 | O=C(Nc1ccncc1)Nc1ccccc1Cl | 33.5 (≈ 135 µM)
4 | Cc1ccc2oc(=O)cc(CN3CC(C)OC(C)C3)c2c1 (stereo not given) | > 43.1
5 | C=CCC1(Nc2ccccc2)CC(C)N(C)CC1C.O=C(O)C(=O)O (stereo not given) | > 52.3
6 | Cc1cc(NC(=O)COC(=O)C2=COCCO2)c([N+](=O)[O-])cc1C | 3.7 (≈ 11 µM)
7 | O=C(Cc1cccs1)NCc1ccc(Cl)cc1 | 23.5 (≈ 88.4 µM)
8 | CC(=O)NC1(NC(C)=O)CCN(C)CC1 | > 32
9 | C=CCSc1nc(C)c(CCCC)c(=O)[nH]1 | > 35.8
10 | CC(=O)c1cn(C(=O)c2ccc(Cl)cc2)c2ccccc12 | 3.6 (≈ 12.1 µM)
11 | Cc1nc2ccsc2c(=O)n1-c1ccccc1Cl | > 41.5
12 | O=S(=O)(NCC(O)c1ccccc1)c1ccc(-c2ccccn2)s1 (stereo not given) | > 54.1
13 | O=P(C(Cl)Cl)(N1CCOCC1)N1CCOCC1 | > 45.5
14 | O=C(NCCCNC(=O)c1cnccn1)c1cccc(Cl)c1 | 47.1 (≈ 148 µM)
15 | N#CC1CCN(c2ncccc2[N+](=O)[O-])CC1 | > 34.8
16 | COc1cccc(N2CCN(c3nc(C)cc(=O)[nH]3)CC2)c1 | 44.6 (≈ 148 µM)
17 | CC1(C)CC(=O)N(c2ccc(Cl)cc2Cl)C(=O)C1 | > 42.9
18 | Nc1ccc(Oc2ccccc2-c2ccccc2)cc1 | 10.4 (≈ 39.8 µM)
19 | Cc1cc(Cl)c(Cl)cc1S(=O)(=O)NCCCn1ccnc1 | 45.2 (≈ 130 µM)
20 | CC(Nc1c[nH]c(=O)[nH]c1=O)c1ccccc1 (stereo not given) | 22.3 (≈ 96.4 µM)
21 | NC(Cc1c[nH]c2ccccc12)C(=O)NCc1ccco1 (stereo not given) | > 42.5
22 | Cc1csc(=O)n1CC(=O)Nc1ccc(Cl)cc1F | 9 (≈ 29.9 µM)
23 | Cc1ccc(C(=O)C2=C(O)C(=O)N(c3ncccn3)C2c2ccc(F)cc2)o1 (stereo not given) | > 56.9
24 | CC(=O)c1ccc(NC(=S)NCc2ccco2)cc1 | > 41.2
25 | COc1ccc(CNC2CC(C)N(C)CC2C)cc1OC.Cl (stereo not given) | 50.9
26 | O=S(=O)(Nc1cccc(S(=O)(=O)N2CCCCC2)c1)c1ccc(Cl)s1 | > 63.1

Other lines, results leading:

Row | solubility kinetic [µg/mL] | Structure (SMILES)
27 | > 40.3 | CN1CCCN(C(=O)c2cccc3ccccc23)CC1
28 | 51.1 (≈ 142 µM) | CC(=O)NC(C(=O)N1CCC(c2nc3ccccc3s2)CC1)C(C)C (stereo not given)
29 | 37.3 (≈ 144 µM) | CCOC(=O)c1cnc(Cc2ccccc2)[nH]c1=O
30 | 4.6 (≈ 14.9 µM) | Cc1[nH]c2ccccc2c1C(=O)COC(=O)c1ccccc1O
31 | > 54.4 | O=C(c1cccc(C(F)(F)F)c1)N1CCN(CCc2ccccc2)CC1
32 | 44.3 (≈ 128 µM) | CN(C)CCCNc1nc(N)c([N+](=O)[O-])c(NCc2ccccc2)n1
33 | > 41.4 | O=C(CN1C(=O)COc2ccccc21)N1CCOCC1
34 | > 50 | O=C(CN1C(=O)COc2ccccc21)NCCCN1CCOCC1
35 | 44.3 (≈ 150 µM) | Cc1ccc(OCCn2cc(C(=O)O)c3ccccc32)cc1
36 | > 28.2 | c1ccc(CCOn2ccnc2)cc1
37 | > 38.3 | Cc1ccccc1CNC(=O)COc1ccccc1
38 | 39.3 (≈ 148 µM) | O=C(CN1CCOCC1)Nc1ccc([N+](=O)[O-])cc1
39 | 48.6 (≈ 142 µM) | Cc1cc(C(=O)OCC(=O)N2CCOCC2)c(C)n1-c1ccccc1
40 | 44.4 (≈ 135 µM) | CCN(CC)CC(O)CN1c2ccccc2Sc2ccccc21 (stereo not given)
41 | > 51.4 | CCOc1ncccc1C(=O)OCC(=O)NCCCc1ccccc1
42 | 5.9 (≈ 18.7 µM) | O=C(/C=C/c1c(F)cccc1Cl)N1CCc2ccccc2C1
43 | 1.6 (≈ 5.57 µM) | N#CCC(=O)N1CCN(Cc2ccc3c(c2)OCO3)CC1

Row | solubility kinetic [µg/mL] | Structure (SMILES)
44 | 41.2 (≈ 133 µM) | O=C(c1ccco1)N1CCN(Cc2nc3ccccc3[nH]2)CC1
45 | 5.5 (≈ 15.7 µM) | Cc1ccc(CNC(=O)COC(=O)c2cc(=O)[nH]c3ccccc23)cc1
46 | 41.3 (≈ 129 µM) | O=C(CCC1CCN(Cc2ccc(Cl)cc2)CC1)NC1CC1
47 | > 43.9 | CC(C)CC(=O)N1CCN(C(=O)c2ccc(F)cc2)CC1
48 | > 49 | COC(=O)[C@H](Cc1ccccc1)NC(=O)NCc1ccc(C)cc1
49 | < 0.4 | CCC(=O)c1cn(CC(=O)Nc2cccc(C)c2C)c2ccccc12
50 | > 35.6 | COc1cccc(OC(=O)N2CCOCC2)c1
51 | 44.2 (≈ 129 µM) | COc1ccc(NC(=O)CC(NC(C)c2ccccc2)C(=O)O)cc1 (stereo not given)
52 | 30.1 (≈ 119 µM) | N#CCOC(=O)c1c2c(nc3ccccc13)CCC2
53 | > 45.7 | CCOC(=O)N1CCC(NC(=O)CCc2ccccc2)CC1
54 | > 49.7 | CCCN1C2CCCC1CC(NC(=O)c1cccc([N+](=O)[O-])c1)C2 (stereo not given)
55 | 43 (≈ 118 µM) | CCN(CC)C(=O)Cn1cc(/C=C(\C#N)C(=O)NC2CC2)c2ccccc21
56 | 10.8 (≈ 34.7 µM) | O=C(c1ccccc1)C1CCN(c2ncccc2[N+](=O)[O-])CC1
57 | 31 (≈ 116 µM) | Clc1cccc(OCCCCN2CCCCC2)c1
58 | > 46.9 | CCOCCCNC(=O)CN1C(=O)c2cccc3cccc1c23
59 | > 45.2 | O=C(NCCN1CCOCC1)C(=O)c1c[nH]c2ccccc12
60 | 1.4 (≈ 4.5 µM) | C=COCCCNc1ncnc2sc(-c3ccccc3)cc12
